Data as given in ChEMBL document CHEMBL3763035, “Neuroprotective profile of pyridothiazepines with blocking activity of the mitochondrial Na(+)/Ca(2+) exchanger” (Eur J Med Chem, 2016).
Calls of active or inactive are those of the source. The calls are words filed in the database; no cut-off is given here.

Experiments:
Hippocampus = assay: Neuroprotective activity against glutamate-induced neuronal cell death in Sprague-Dawley rat brain hippocampal slices assessed as cell viability at 10 uM incubated 4 hrs by MTT assay relative to control; format: functional; settings: read-out: Activity
[1] = Neuroprotective activity against veratradine-induced neuronal cell death in bovine chromaffin cells assessed as cell viability at 10 uM after 24 hrs by LDH release assay relative to control; format: functional; settings: Bos taurus, read-out: Activity
SH-SY5Y [2] = assay: Neuroprotective activity against potassium ion-induced cytotoxicity in human SH-SY5Y cells assessed as cell viability at 3 uM pretreated for 24 hrs measured 24 hrs post potassium ion challenge by MTT assay relative to control; format: functional; settings: read-out: Activity
SH-SY5Y [3] = assay: Neuroprotective activity against rotenone/oligomycin A-induced oxidative stress in human SH-SY5Y cells assessed as cell viability at 0.3 uM pretreated for 24 hrs measured 24 hrs post rotenone/oligomycin challenge by MTT assay relative to control; format: functional; settings: read-out: Activity
[4] = target: T1, Mitochondrial sodium/calcium exchanger protein (Homo sapiens) (UniProt Q6J4K2); assay: Inhibition of mitochondrial sodium/calcium exchanger in human HeLa cells assessed as reduction in decay rate of histamine-induced mitochondrial calcium at 3 uM after 36 to 48 hrs by aequorin staining based bioluminescence assay; format: cell-based
T1 sequence (whole entry): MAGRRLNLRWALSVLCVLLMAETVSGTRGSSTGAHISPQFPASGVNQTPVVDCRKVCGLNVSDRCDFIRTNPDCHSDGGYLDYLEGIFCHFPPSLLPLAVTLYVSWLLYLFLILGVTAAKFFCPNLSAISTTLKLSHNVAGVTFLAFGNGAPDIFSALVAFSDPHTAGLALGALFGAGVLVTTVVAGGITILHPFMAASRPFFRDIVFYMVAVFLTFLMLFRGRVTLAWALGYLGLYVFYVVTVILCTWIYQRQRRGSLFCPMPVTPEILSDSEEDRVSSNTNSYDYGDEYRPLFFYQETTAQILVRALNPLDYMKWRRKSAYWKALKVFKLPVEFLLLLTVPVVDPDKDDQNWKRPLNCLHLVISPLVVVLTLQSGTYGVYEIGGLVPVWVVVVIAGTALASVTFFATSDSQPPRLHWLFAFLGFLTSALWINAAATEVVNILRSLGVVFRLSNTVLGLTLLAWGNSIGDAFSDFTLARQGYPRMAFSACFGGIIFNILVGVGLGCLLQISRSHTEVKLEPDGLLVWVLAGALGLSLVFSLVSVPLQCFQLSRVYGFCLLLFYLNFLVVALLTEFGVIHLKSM

[5] = target: T1, Mitochondrial sodium/calcium exchanger protein (Homo sapiens); assay: Inhibition of mitochondrial sodium/calcium exchanger in human HeLa cells assessed as reduction in clearance of histamine-induced mitochondrial calcium at 3 uM after 36 to 48 hrs by aequorin staining based bioluminescence assay; format: cell-based
[6] = target: T2, Mitochondrial sodium/calcium exchanger protein (Homo sapiens, UniProt Q6J4K2); assay: Inhibition of mitochondrial sodium/calcium exchanger (unknown origin)
T2 sequence (Q6J4K2 whole entry): T1 sequence (whole entry)

Bos taurus [7] = organism: Bos taurus; assay: Inhibition of voltage gated calcium channel in bovine chromaffin cells assessed as blockade of depolarizing pulse-induced whole cell inward calcium currents by perforated patch clamp method; format: cell-based
[8] = target: T1, Mitochondrial sodium/calcium exchanger protein (Homo sapiens); assay: Inhibition of mitochondrial sodium/calcium exchanger in human HeLa cells assessed as increase in AUC of histamine-induced mitochondrial calcium at 3 uM after 36 to 48 hrs by aequorin staining based bioluminescence assay; format: cell-based
[9] = target: T1, Mitochondrial sodium/calcium exchanger protein (Homo sapiens); assay: Inhibition of mitochondrial sodium/calcium exchanger in human HeLa cells assessed as increase in maximal peak of histamine-induced mitochondrial calcium at 3 uM after 36 to 48 hrs by aequorin staining based bioluminescence assay; format: cell-based
HeLa = assay: Cytotoxicity against human HeLa cells assessed as reduction in cell viability at 0.3 to 30 uM after 24 hrs by MTT assay; format: cell-based
SH-SY5Y [10] = assay: Cytotoxicity in human SH-SY5Y cells assessed as ROS generation after 24 hrs by H2DCFDA/Hoechst dye based fluorescence assay; format: cell-based
Bos taurus [11] = organism: Bos taurus; assay: Inhibition of sodium channel in bovine chromaffin cells assessed as blockade of inward sodium currents by perforated patch clamp method; format: cell-based

**Q.** Which viability at 10 µM (Hippocampus) does the source give for `CC12CC3CC(C)(C1)CC(N)(C3)C2` [MEMANTINE] here?
**A.** The viability at 10 µM was 43%.

**Q.** Which viability at 10 µM [1] does the source give for `COc1ccccc1C1SCC(=O)Nc2ncc(Cl)cc21` (stereo not given) here?
**A.** The viability at 10 µM was 27%.

**Q.** And the viability at 3 µM (SH-SY5Y [2])?
**A.** Its viability at 3 µM is 17%.

**Q.** What about the viability at 10 µM (Hippocampus) of the same compound?
**A.** Its viability at 10 µM is 13%.

**Q.** And the viability at 0.3 µM (SH-SY5Y [3])?
**A.** Its viability at 0.3 µM is 19%.

**Q.** Which inhibition [4] does the source give for `O=C1CSC(c2ccccc2Br)c2cc(Cl)cnc2N1` (stereo not given) here?
**A.** Its inhibition is “Active”.

**Q.** And the inhibition [5]?
**A.** Its inhibition is “inactive”.

**Q.** What about the viability at 10 µM [1] of the same compound?
**A.** Its viability at 10 µM is 23%.

**Q.** And the viability at 3 µM (SH-SY5Y [2])?
**A.** The viability at 3 µM was 30%.

**Q.** And the viability at 10 µM (Hippocampus)?
**A.** Its viability at 10 µM is 28%.

**Q.** And the viability at 0.3 µM (SH-SY5Y [3])?
**A.** Its viability at 0.3 µM is 21%.

**Q.** For `COC(=O)C1=C(C)NC(C)=C(C(=O)OC)C1c1ccccc1[N+](=O)[O-]` [NIFEDIPINE], which viability at 3 µM (SH-SY5Y [2]) is on record?
**A.** The viability at 3 µM was 24%.

**Q.** With `O=C1CSC(c2ccccc2Cl)c2cc(Cl)ccc2N1` (stereo not given) as the compound, how does the IC50 [6] read?
**A.** Its IC50 is 1600 nM.

**Q.** What about the inhibition [4] of the same compound?
**A.** Its inhibition is “Active”.

**Q.** What about the inhibition (Bos taurus [7]; dose or concentration not given here) of the same compound?
**A.** Its inhibition is 37%.

**Q.** What about the viability at 10 µM [1] of the same compound?
**A.** Its viability at 10 µM is 76%.

**Q.** And the viability at 3 µM (SH-SY5Y [2])?
**A.** The viability at 3 µM was 36%.

**Q.** And the viability at 10 µM (Hippocampus)?
**A.** The viability at 10 µM was 37%.

**Q.** What about the viability at 0.3 µM (SH-SY5Y [3]) of the same compound?
**A.** The viability at 0.3 µM was 18%.

**Q.** Which viability at 10 µM [1] does the source give for `O=C1CSC(c2ccccc2Cl)c2cc(Cl)cnc2N1` (stereo not given) here?
**A.** Its viability at 10 µM is 22%.

**Q.** And the viability at 3 µM (SH-SY5Y [2])?
**A.** The viability at 3 µM was 33%.

**Q.** What about the viability at 10 µM (Hippocampus) of the same compound?
**A.** Its viability at 10 µM is 27%.

**Q.** And the viability at 0.3 µM (SH-SY5Y [3])?
**A.** The viability at 0.3 µM was 11%.

**Q.** With `Cc1ccccc1C1SCC(=O)Nc2ncc(Cl)cc21` (stereo not given) as the compound, how does the viability at 10 µM [1] read?
**A.** The viability at 10 µM was 14%.

**Q.** And the viability at 3 µM (SH-SY5Y [2])?
**A.** Its viability at 3 µM is 20%.

**Q.** What about the viability at 10 µM (Hippocampus) of the same compound?
**A.** Its viability at 10 µM is 27%.

**Q.** What about the viability at 0.3 µM (SH-SY5Y [3]) of the same compound?
**A.** Its viability at 0.3 µM is 21%.

**Q.** Which results are given for `CC(C)c1ccccc1C1SCC(=O)Nc2ncc(Cl)cc21` (stereo not given)?
**A.** viability at 10 µM [1]: 49%; viability at 3 µM (SH-SY5Y [2]): 28%; viability at 10 µM (Hippocampus): 33%; viability at 0.3 µM (SH-SY5Y [3]): 19%

**Q.** What does the source list for `CCOc1ccccc1C1SCC(=O)Nc2ncc(Cl)cc21` (stereo not given)?
**A.** viability at 10 µM [1]: 17%; viability at 3 µM (SH-SY5Y [2]): 28%; viability at 10 µM (Hippocampus): 11%; viability at 0.3 µM (SH-SY5Y [3]): 26%

**Q.** Which inhibition [4] does the source give for `O=C1CSC(c2ccccc2)c2cc(Cl)cnc2N1` (stereo not given) here?
**A.** Its inhibition is “Active”.

**Q.** What about the viability at 10 µM [1] of the same compound?
**A.** The viability at 10 µM was 6%.

**Q.** And the viability at 3 µM (SH-SY5Y [2])?
**A.** Its viability at 3 µM is 21%.

**Q.** What about the viability at 10 µM (Hippocampus) of the same compound?
**A.** The viability at 10 µM was 33%.

**Q.** And the viability at 0.3 µM (SH-SY5Y [3])?
**A.** Its viability at 0.3 µM is 30%.

**Q.** With `O=C1CSC(c2ccccc2C(F)(F)F)c2cc(Cl)cnc2N1` (stereo not given) as the compound, how does the viability at 10 µM [1] read?
**A.** The viability at 10 µM was 17%.

**Q.** And the viability at 3 µM (SH-SY5Y [2])?
**A.** Its viability at 3 µM is 19%.

**Q.** What about the viability at 10 µM (Hippocampus) of the same compound?
**A.** Its viability at 10 µM is 42%.

**Q.** And the viability at 0.3 µM (SH-SY5Y [3])?
**A.** The viability at 0.3 µM was 18%.

**Q.** For `COc1ccc2[nH]cc(CCNC(C)=O)c2c1` [MELATONIN], which viability at 0.3 µM (SH-SY5Y [3]) is on record?
**A.** The viability at 0.3 µM was 27%.

**Q.** Which results are given for `O=C1CSC(c2ccc(F)cc2)c2cc(Cl)cnc2N1` (stereo not given)?
**A.** inhibition [8]: Active; inhibition [9]: Active; inhibition [4]: Active; Activity (HeLa): Non-toxic; Activity (SH-SY5Y [10]): Non-toxic; inhibition (Bos taurus [7]): inactive; inhibition (Bos taurus [11]): inactive; viability at 10 µM [1]: 22%; viability at 3 µM (SH-SY5Y [2]): 27%; viability at 10 µM (Hippocampus): 20%; viability at 0.3 µM (SH-SY5Y [3]): 24%

**Q.** What does the source list for `COc1ccc(C2SCC(=O)Nc3ncc(Cl)cc32)cc1` (stereo not given)?
**A.** viability at 10 µM [1]: 27%; viability at 3 µM (SH-SY5Y [2]): 10%; viability at 10 µM (Hippocampus): 34%; viability at 0.3 µM (SH-SY5Y [3]): 23%
